Source: ChEMBL document CHEMBL5352498, “Aza-Residue Modulation of Cyclic d,l-α-Peptide Nanotube Assembly with Enhanced Anti-Amyloidogenic Activity” (J Med Chem, 2023)
Activity calls are given as the source filed them. The rule behind the calls is not given here. Where a SMILES comes first, the peptide text is derived from it. [ ]: non-standard residue; d: D form. Nle = CCCC[C@H](N)C(=O)O

Assays:
[1] = target: Amyloid-beta precursor protein (Homo sapiens) (UniProt P05067); test: Inhibition of amyloid beta 40 (unknown origin) aggregation assessed as decrease in […] conformation of protein secondary structure at 50 uM incubated for 24 hrs by Circular dichroism spectroscopy analysis
Amyloid-beta precursor protein (Homo sapiens), sequence (P05067 whole entry, the tested form may be a part): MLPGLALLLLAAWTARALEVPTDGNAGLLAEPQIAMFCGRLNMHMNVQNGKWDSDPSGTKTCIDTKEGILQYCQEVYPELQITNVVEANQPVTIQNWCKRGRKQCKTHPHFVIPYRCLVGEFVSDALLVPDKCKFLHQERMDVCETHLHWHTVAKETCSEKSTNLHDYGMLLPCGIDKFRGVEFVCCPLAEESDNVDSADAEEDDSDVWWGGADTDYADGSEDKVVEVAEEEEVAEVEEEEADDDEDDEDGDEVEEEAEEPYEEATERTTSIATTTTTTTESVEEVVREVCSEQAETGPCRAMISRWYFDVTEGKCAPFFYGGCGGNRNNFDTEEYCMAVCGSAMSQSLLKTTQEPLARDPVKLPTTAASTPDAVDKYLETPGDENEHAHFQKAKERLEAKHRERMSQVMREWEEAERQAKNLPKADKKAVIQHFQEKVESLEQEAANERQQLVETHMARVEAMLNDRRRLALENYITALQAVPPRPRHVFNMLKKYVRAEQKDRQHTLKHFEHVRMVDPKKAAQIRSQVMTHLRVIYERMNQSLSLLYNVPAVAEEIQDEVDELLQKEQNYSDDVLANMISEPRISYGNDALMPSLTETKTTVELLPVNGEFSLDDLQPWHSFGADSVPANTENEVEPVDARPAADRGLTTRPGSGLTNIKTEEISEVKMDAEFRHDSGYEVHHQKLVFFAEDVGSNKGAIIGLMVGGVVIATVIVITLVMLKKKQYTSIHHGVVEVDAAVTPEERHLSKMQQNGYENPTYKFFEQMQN

PC-12 [2] = test: Neuroprotective activity against amyloid beta 40-induced cytotoxicity in rat PC12 cells assessed as increase in cell viability at compound:Abeta40 concentration ratio of 1:5 and incubated for 24 hrs by MTT assay relative to control; assay type: functional
Caenorhabditis elegans [3] = test: Neuroprotective activity against wild type Caenorhabditis elegans CL2122 assessed as delay in amyloid beta 42-induced paralysis at 50 uM incubated for 48 hrs; assay type: functional, organism-based
Caenorhabditis elegans [4] = test: Neuroprotective activity in transgenic Caenorhabditis elegans GMC101 Alzheimer's disease model expressing human amyloid beta (1 to 42 residues) in body-wall muscle assessed as increase in fraction of unparalyzed worms at 5 uM incubated for 48 hrs (Rvb= 56%); assay type: functional
[5] = target: Amyloid-beta precursor protein (Homo sapiens) (UniProt P05067); test: Inhibition of amyloid beta 40 (unknown origin) aggregation assessed as reduction in fibril formation by measuring fluorescence intensity at 100 to 500 uM measured for 72 hrs by ThT flourescence assay; conditions: dose 100-500 µM
[6] = target: Amyloid-beta precursor protein (Homo sapiens) (UniProt P05067); test: Inhibition of amyloid beta 40 (unknown origin) aggregation assessed as assessed as decrease in fibril formation by measuring decrease in fibril-specific OC antibody spots at 150 uM and measured for 48 hrs by Dot-Blot assay
Caenorhabditis elegans [7] = test: Neuroprotective activity against wild type Caenorhabditis elegans CL2122 assessed as motility changes by measuring worms bending frequency at 50 uM incubated for 36 hrs at 16 degreeC and 36 hrs at 23 degreeC; assay type: functional, organism-based; conditions: time 72.0 hrs
Caenorhabditis elegans [8] = test: Neuroprotective activity in transgenic Caenorhabditis elegans GMC101 Alzheimer's disease model overexpressing human amyloid beta (1 to 42 residues) in body-wall muscle assessed as delay in amyloid beta 42-induced paralysis at 5 to 50 uM incubated for 48 hrs; assay type: functional, organism-based; conditions: dose 5-50 µM
[9] = target: Amyloid-beta precursor protein (Homo sapiens) (UniProt P05067); test: Induction of amyloid beta 40 fibrils (unknown origin) disaggregation assessed as decrease in relative fluorescence intensity at 500 uM incubated for 24 hrs ThT flourescence assay relative to control; design: scale not given: the % may be the effect or the level left
Caenorhabditis elegans [10] = test: Neuroprotective activity in transgenic Caenorhabditis elegans GMC101 Alzheimer's disease model overexpressing human amyloid beta (1 to 42 residues) in body-wall muscle assessed as reduction in amyloid beta fibrils incubated for 48 hrs by Western blot analysis; assay type: functional, organism-based
PC-12 [11] = test: Cytotoxicity against rat PC12 cells assessed as reduction in cell viability at 100 uM incubated for 24 hrs by MTT assay; assay type: toxicity, cell-based; conditions: pc-12, 24 h
[12] = target: Amyloid-beta precursor protein (Homo sapiens) (UniProt P05067); test: Inhibition of amyloid beta 40 (unknown origin) self aggregation assessed as decrease in fibril formation at 500 uM incubated for 72 hrs by TEM analysis
Caenorhabditis elegans [13] = test: Neuroprotective activity in transgenic Caenorhabditis elegans GMC101 Alzheimer's disease model overexpressing human amyloid beta (1 to 42 residues) in body-wall muscle assessed as reduction in amyloid beta oligomers incubated for 48 hrs by Western blot analysis; assay type: functional, organism-based
Caenorhabditis elegans [14] = test: Neuroprotective activity in transgenic Caenorhabditis elegans GMC101 Alzheimer's disease model overexpressing human amyloid beta (1 to 42 residues) in body-wall muscle assessed as reduction in oligomeric-specific A11 antibody spots incubated for 48 hrs by immunochemical dot-blot analysis; assay type: functional, organism-based
Caenorhabditis elegans [15] = test: Neuroprotective activity against transgenic Caenorhabditis elegans CL2355 Alzheimer's disease model expressing human amyloid beta (1 to 42 residues) in neuron assessed as neutralization of damaging effect of amyloid beta aggregation by measuring increase in chemotaxis index at 50 uM incubated for 36 hrs at 16 degreeC and 36 hrs at 23 degreeC by Chemotaxis Assay; assay type: functional, organism-based; conditions: time 72.0 hrs
Caenorhabditis elegans [16] = test: Neuroprotective activity against transgenic Caenorhabditis elegans CL2355 Alzheimer's disease model expressing human amyloid beta (1 to 42 residues) in neuron assessed as increase in motility at 5 to 50 uM incubated for 36 hrs at 16 degreeC and 36 hrs at 23 degreeC; assay type: functional, organism-based; conditions: dose 5-50 µM, time 72.0 hrs
[17] = target: Amyloid-beta precursor protein (Homo sapiens) (UniProt P05067); test: Inhibition of amyloid beta 42 (unknown origin) aggregation assessed as decrease in fibril formation by measuring fluorescence intensity and measured for 72 hrs by ThT flourescence assay
[18] = target: Amyloid-beta precursor protein (Homo sapiens) (UniProt P05067); test: Inhibition of amyloid beta 40 (unknown origin) aggregation assessed as assessed as decrease in oligomer formation by measuring decrease in oligomer-specific A11 antibody spots at 150 uM and measured for 48 hrs by Dot-Blot assay
Caenorhabditis elegans [19] = test: (§1) Neuroprotective activity against transgenic Caenorhabditis elegans CL2355 Alzheimer's disease model expressing human amyloid beta (1 to 42 residues) in neuron assessed as increase in motility by measuring bending frequency at 5 uM incubated for 36 hrs at 16 degreeC and 36 hrs at 23 degreeC (reference value: 74); assay type: functional; conditions: time 72 hrs
PC-12 [20] = test: Neuroprotective activity against amyloid beta 40-induced cytotoxicity in rat PC12 cells assessed as increase in cell viability at compound:Abeta40 concentration ratio of 1:1 and incubated for 24 hrs by MTT assay relative to control; assay type: functional, cell-based
[21] = target: Amyloid-beta precursor protein (Homo sapiens) (UniProt P05067); test: Inhibition of amyloid beta 40 (unknown origin) aggregation assessed as reduction in fibril formation by measuring fluorescence intensity at compound:Abeta40 concentration ratio of 1:5 and measured for 72 hrs by ThT flourescence assay relative to control
[22] = target: Amyloid-beta precursor protein (Homo sapiens) (UniProt P05067); test: Inhibition of amyloid beta 42 (unknown origin) aggregation assessed as reduction in fibril formation by measuring fluorescence intensity at compound:Abeta42 concentration ratio of 1:5 and measured for 72 hrs by ThT flourescence assay relative to control
[23] = target: Amyloid-beta precursor protein (Homo sapiens) (UniProt P05067); test: Inhibition of amyloid beta 40 (unknown origin) aggregation assessed as reduction in fibril formation by measuring fluorescence intensity at compound:Abeta40 concentration ratio of 1:1 and measured for 72 hrs by ThT flourescence assay relative to control
Caenorhabditis elegans [24] = test: Neuroprotective activity in transgenic Caenorhabditis elegans GMC101 Alzheimer's disease model overexpressing human amyloid beta (1 to 42 residues) in body-wall muscle assessed as reduction in fibril-specific […] antibody spots incubated for 48 hrs by immunochemical dot-blot analysis; assay type: functional, organism-based
Caenorhabditis elegans [25] = test: as §1, with “72)” for “74)”; assay type: functional; conditions: time 72 hrs
Caenorhabditis elegans [26] = test: Neuroprotective activity against transgenic Caenorhabditis elegans CL2355 Alzheimer's disease model expressing human amyloid beta (1 to 42 residues) in neuron assessed as increase in chemotaxis index at 50 uM incubated for 36 hrs at 16 degreeC and 36 hrs at 23 degreeC by Chemotaxis Assay (0.22; assay type: functional; conditions: time 72 hrs
Caenorhabditis elegans [27] = test: Neuroprotective activity against transgenic Caenorhabditis elegans GMC101 Alzheimer's disease model expressing human amyloid beta 42 assessed as increase in fractional of unparalyzed worms at 5 uM (Rvb=51%); assay type: functional
[28] = target: Amyloid-beta precursor protein (Homo sapiens) (UniProt P05067); test: Inhibition of amyloid beta 40 (unknown origin) self aggregation assessed as change in fibril morphology at 500 uM incubated for 72 hrs by TEM analysis

CCCCN1NC(=O)[C@@H](CC(C)C)NC(=O)[C@H](CCCCN)NC(=O)[C@@H](CO)NC(=O)[C@H](Cc2c[nH]cn2)NC(=O)[C@@H](Cc2c[nH]c3ccccc23)NC1=O (racemic)
inhibition [1]: inactive
Activity (PC-12 [2]): >90%
Activity (Caenorhabditis elegans [3]): inactive
Activity (Caenorhabditis elegans [4]): 76%
inhibition [5]: Active
inhibition [6]: Active
Activity (Caenorhabditis elegans [7]): inactive
Activity (Caenorhabditis elegans [8]): Dose-Dependent Effect
Activity [9]: < 50%
Activity (Caenorhabditis elegans [10]): Active
Activity (PC-12 [11]): Non-Toxic
inhibition [12]: Active
Activity (Caenorhabditis elegans [13]): Active
Activity (Caenorhabditis elegans [14]): Active
Activity (Caenorhabditis elegans [15]): Active
Activity (Caenorhabditis elegans [16]): Dose-Dependent Effect
inhibition [17]: Active
inhibition [18]: Active
Activity (Caenorhabditis elegans [19]): 79
Activity (PC-12 [20]): Active
inhibition [21]: 88%
inhibition [22]: 87.6%
inhibition [23]: 93%
Activity (Caenorhabditis elegans [24]): Active

CCCC[C@@H]1NC(=O)[C@@H](CC(C)C)NC(=O)[C@H](CCCCN)NC(=O)[C@@H](CO)NC(=O)[C@H](Cc2c[nH]cn2)NC(=O)N(Cc2cc3ccccc3[nH]2)NC1=O
inhibition [1]: inactive
inhibition [5]: Active
inhibition [6]: inactive
Activity [9]: < 50%
Activity (PC-12 [11]): Toxic
inhibition [17]: inactive
inhibition [18]: inactive
inhibition [21]: Active

CCCC[C@@H]1NC(=O)[C@@H](CC(C)C)NC(=O)[C@H](CCCCN)NC(=O)[C@@H](CO)NC(=O)[C@H](Cc2c[nH]cn2)NC(=O)[C@@H](Cc2c[nH]c3ccccc23)NC1=O (cyclo(K[dL][Nle][dW]H[dS]))
Activity (PC-12 [2]): 88%
Activity (Caenorhabditis elegans [25]): 82
Activity (Caenorhabditis elegans [26]): 0.32
Activity [9]: 33%
Activity (PC-12 [11]): Non-Toxic
Activity (Caenorhabditis elegans [27]): 86%
inhibition [21]: 89%
inhibition [23]: 50%

CCCC[C@@H]1NC(=O)[C@@H](CC(C)C)NC(=O)[C@H](CCCCN)NC(=O)[C@@H](CO)NC(=O)N(Cc2c[nH]nn2)NC(=O)[C@@H](Cc2c[nH]c3ccccc23)NC1=O (racemic)
inhibition [1]: 60%
Activity (PC-12 [2]): >90%
inhibition [5]: Active
inhibition [6]: Active
Activity [9]: < 50%
Activity (PC-12 [11]): Non-Toxic
inhibition [17]: Active
inhibition [18]: Active
inhibition [21]: Active

CCCC[C@@H]1NC(=O)[C@@H](CC(C)C)NC(=O)[C@H](CCCCN)NC(=O)N(CCO)NC(=O)[C@H](Cc2c[nH]cn2)NC(=O)[C@@H](Cc2c[nH]c3ccccc23)NC1=O (racemic)
inhibition [1]: 60%
Activity (PC-12 [2]): >90%
Activity (Caenorhabditis elegans [3]): inactive
Activity (Caenorhabditis elegans [4]): 60%
inhibition [5]: Active
Activity (Caenorhabditis elegans [7]): inactive
Activity (Caenorhabditis elegans [8]): Dose-Dependent Effect
Activity [9]: < 50%
Activity (Caenorhabditis elegans [10]): Active
Activity (PC-12 [11]): Non-Toxic
Activity (Caenorhabditis elegans [13]): Active
Activity (Caenorhabditis elegans [14]): Active
Activity (Caenorhabditis elegans [15]): Active
Activity (Caenorhabditis elegans [16]): Dose-Dependent Effect
inhibition [17]: Active
inhibition [18]: Active
Activity (Caenorhabditis elegans [19]): 79
inhibition [28]: Active
Activity (PC-12 [20]): Active
inhibition [21]: Active
Activity (Caenorhabditis elegans [24]): Active

CCCC[C@@H]1NC(=O)N(CC(C)C)NC(=O)[C@H](CCCCN)NC(=O)[C@@H](CO)NC(=O)[C@H](Cc2c[nH]cn2)NC(=O)[C@@H](Cc2c[nH]c3ccccc23)NC1=O (racemic)
inhibition [1]: Active
inhibition [5]: Active
inhibition [6]: inactive
Activity [9]: 72%
Activity (PC-12 [11]): Toxic
inhibition [18]: inactive
inhibition [21]: inactive
inhibition [23]: inactive

CCCC[C@@H]1NC(=O)[C@@H](CC(C)C)NC(=O)N(CCCCN)NC(=O)[C@@H](CO)NC(=O)[C@H](Cc2c[nH]cn2)NC(=O)[C@@H](Cc2c[nH]c3ccccc23)NC1=O (racemic)
inhibition [1]: Active
Activity (PC-12 [2]): >90%
inhibition [5]: Active
Activity [9]: < 50%
Activity (PC-12 [11]): Non-Toxic
inhibition [17]: Active
inhibition [18]: Active
inhibition [28]: Active
Activity (PC-12 [20]): Active
inhibition [21]: inactive
inhibition [23]: inactive
